Measured values reported in patent US20090149417A1, “Methods and compositions for the treatment of cancer using benzopyrone-type PARP inhibitors” (priority 2007, published 2009).
Like-named read-outs stand apart in the source and are kept apart here.

Legend:
MX-1 = experiment: BrdU chemiluminescent cell proliferation assay; type: cell-based, human; conditions: for IC50: Homo sapiens, MX1, 72 hour treatment
Experimental: (§1) Test Agents—Cells are treated 24 hours after plating (Day 1) with vehicle or test agents at concentrations of 0.1 μM, 0.3 μM, 1 μM, 3 μM, 10 μM, 30 μM and 100 μM.
(§2) Tumor Cell Lines—Tumor cell lines (Table 1) are obtained from the American Type Cell Collection (ATCC, Rockville, Md.) or NCI-DCTD Tumor Repository (Bethesda, Md.) and maintained in proper growth media supplemented with 10% fetal bovine serum (FBS, NovaTech), and are maintained in specified growth media. Cells are propagated at 37° C. in a humidified atmosphere containing 5% carbon dioxide.
(§3) Cell proliferation assay—Cell proliferation is determined using BrdU chemiluminescent assay, which measures incorporation of 5-bromo-2′-deoxyuridine (BrdU) into the genomic DNA of proliferating cells. Briefly, cells are added with BrdU for 4 hours, during which time it incorporates into the DNA of dividing cells in place of thymidine. Following labeling, cells are fixed and DNA denatured in one step by adding a FixDenat® denaturizing solution. After removing FixDenat, an anti-BrdU-peroxidase conjugated antibody is added, which binds to BrdU incorporated into newly-synthesized cellular DNA. Following antibody incubation, cells are washed 3 times with PBS and subjected to luminescent analysis. The reaction product is quantified by measuring light emission using a scanning multi-well luminometer (luminescence ELISA reader.)
(§4) Experimental Design—Tumor cells (Table 1) are grown to 70% confluency, trypsinized, counted and seeded in 96 well flat-bottom plates at final concentrations of 7.5×103-3×10^4 cells/well (Day 0); treatment with IIIg begins on Day 1 and continues for 68 hours (Table 2). Doses for both compounds range between […] and 100 μM. At the 68 hour time point, viable cell number is measured by BrdU assay as described above. Experiments are repeated at least twice at the same doses to determine inhibition of cell proliferation. Results from these studies are used to calculate an IC50 value (drug concentration that results in half-maximal response) for IIIg in each line.
(§5) For single studies, data from each experiment is collected and expressed as % Inhibition of Cell Proliferation (% ICP) using the following calculation.
(§6) % ICP=100%×[(1−(RLUtest/RLUvehicle)]
(§7) Where RLUtest is the relative light unit of the tested sample, and RLUvehicle is the relative light unit of the vehicle in which the drug is dissolved. An IC50 value is calculated from % ICP (PRISM® GraphPad software) using the formula:
(§8) y=min+(max−min)/(1+10^(Log(IC50)−x)×Hillslope)
(§9) Where (x) is the logarithm of agonist concentration, (y) is the response, and (min) and (max) are the variable lower and upper plateaus, respectively. The variable Hillslope characterizes the slope of the curve at its midpoint. The IC50 is the drug concentration for y halfway between min and max.

PANC-1 = experiment: BrdU chemiluminescent cell proliferation assay; type: cell-based, human; conditions: for IC50: Homo sapiens, PANC-1, 72 h, 72 hour treatment
Experimental: as §1, §2, §3, §4, §5, §6, §7, §8, §9

[1] = test system: human SW620 colon adenocarcinoma; experiment: Human SW620 colon adenocarcinoma xenograft model in nude mice; type: in vivo
Experimental: The animals are fed ad libitu water (reverse osmosis, 1 ppm Cl) and NIH 31 Modified and Irradiated Lab Diet® consisting of 18.0% crude protein, 5.0% crude fat, and 5.0% crude fiber. The mice are housed on irradiated ALPHA-dri® bed-o-cobs® Laboratory Animal Bedding in static microisolators on a 12-hour light cycle at 21-22° C. (70-72° F.) and 40-60% humidity. PRC specifically complies with the recommendations of the Guide for Care and Use of Laboratory Animals with respect to restraint, husbandry, surgical procedures, feed and fluid regulation, and veterinary care. […]
The human SW620 colon adenocarcinoma utilized in the present study is maintained in nude mice by serial engraftment. […] Tumors are monitored twice weekly and then daily as their volumes approached 80-120 mm^3. […] Tumor size, in mm3, is calculated from: […]
Tumors are calipered twice weekly for the duration of the study. […] The time to endpoint (TTE) for each mouse is calculated according to the following equation: […]
where TTE is expressed in days, endpoint volume is in mm3, b is the intercept, and m is the slope of the line obtained by linear regression of a log-transformed tumor growth data set. […] The calculated TTE is usually less than the day on which an animal is euthanized for tumor size. […]

[2] = mean of Exp1 and Exp2, read-out: Mean IC50

Q: O=c1ccc2c(I)c([N+](=O)[O-])ccc2o1 [IIIg, 5-iodo-6-nitro-benzopyrone] was tested. Which IC50 (MX-1; Exp2, read-out: IC50) did it give?
A: 27 µM

Q: What about the IC50 (MX-1; [2]) of the same molecule?
A: 27 µM

Q: What about the “Mean Maximum % Response” value (MX-1; Max Concentration 100 μM) of the same molecule?
A: 99%

Q: And the IC50 (PANC-1; Exp1, read-out: IC50)?
A: 22 µM

Q: And the IC50 (PANC-1; Exp2, read-out: IC50)?
A: 27 µM

Q: What about the IC50 (PANC-1; [2]) of the same molecule?
A: 24.5 µM

Q: And the “Mean Maximum % Response” value (PANC-1; Max Concentration 100 μM)?
A: 99%

Q: What about the “Survival of tumor-bearing animals” value ([1]; biweekly intraperitoneal injection, 50 mg/kg) of the same molecule?
A: prolongs survival

Q: And the Tumor growth ([1]; once-daily or twice-weekly administration)?
A: inhibits tumor growth
